Experimental data from publication PMC6160999, “Pharmacokinetics, Tissue Distribution and Excretion of a Novel Diuretic (PU-48) in Rats” (Pharmaceutics, 2018).
Where two headings read alike, the source gives them in different places.

How the values were obtained:
[1] = Urine and feces excretion after single oral PU-48 SNEDDS; format: in vivo; settings: rat, oral PU-48 SNEDDS 12 mg/kg
[2] = Tissue distribution after single oral PU-48 SNEDDS; format: in vivo; settings: rat, oral PU-48 SNEDDS 12 mg/kg
Procedure: Internal standard (IS, 25 μL) was added to 50 μL plasma, urine, or bile sample in a clean tube, placed into a water bath at 37 °C, and dried under a gentle stream of nitrogen gas, followed by the addition of 0.5 mL of ethyl acetate for liquid-liquid extraction. The mixture was shaken by a vortex mixer for 3 min, and then centrifuged at 8000 rpm (4200× g) for 10 min at 4 °C. After centrifugation, the upper organic phase was transferred into a clean centrifuge tube and then dried it again. The combined upper organic phases were evaporated to dryness at 37 °C under a gentle stream of nitrogen gas. The residue was reconstituted with 50 μL acetonitrile and then centrifuged at 13,000 rpm (12,000× g) for 10 min at 4 °C, the upper liquid was transferred into sample vials. Finally, 5 μL aliquots were injected into the LC–MS/MS system to analyze. Each tissue samples were homogenized in normal saline (0.9% NaCl, 1:3, w/v), and then centrifuged at 10,000× g for 10 min to get the supernatant. Other steps were the same as plasma sample preparation.
Thirty rats were divided randomly into five groups and the rats were given single orally administration of PU-48 (12 mg/kg, 1.2 mg/mL in the SNEDDS formulation). […] After the final time point, the rats were sacrificed and thirteen tissues (liver, spleen, lung, kidney, heart, muscle, colon, intestine, stomach, bladder, testicle, adipose, brain) were collected. Tissues samples were rinsed with ice-cold 0.9% normal saline and blotted dry with filter paper. All the samples were weighted and stored at −20 °C until analysis.

[3] = bladder, read-out: Concentration of PU-48 in bladder
[4] = brain, read-out: Concentration of PU-48 in brain
[5] = colon, read-out: Concentration of PU-48 in colon
[6] = fat, read-out: Concentration of PU-48 in fat
[7] = heart, read-out: Concentration of PU-48 in heart
[8] = intestine, read-out: Concentration of PU-48 in intestine
[9] = kidney, read-out: Concentration of PU-48 in kidney
[10] = liver, read-out: Concentration of PU-48 in liver
[11] = lung, read-out: Concentration of PU-48 in lung
[12] = male, testicle, read-out: Concentration of PU-48 in testicle
[13] = muscle, read-out: Concentration of PU-48 in muscle
[14] = plasma, read-out: Concentration of PU-48 in plasma
[15] = spleen, read-out: Concentration of PU-48 in spleen
[16] = stomach, read-out: Concentration of PU-48 in stomach

SMILES: COC(=O)c1sc2nc3ccc(OC)cc3cc2c1N [PU-48, Methyl 3-amino-6-methoxythieno [2,3-b] quinoline-2-carboxylate]
- Accumulative Excretion Amount, urine ([1]; 24–36 h): 1058.2 ± 684.1 ng
- Accumulative Excretion Amount, urine ([1]; 36–48 h): 1216.6 ± 716.3 ng
- Accumulative Excretion Percentage, urine ([1]; 36–48 h): 0.0436 ± 0.0261%
- concentration at 0.5 h [2, 3]: 258 ± 94.2 ng/g
- concentration at 1 h [2, 3]: 368 ± 124 ng/g
- concentration at 6 h [2, 3]: 43.4 ± 10.7 ng/g
- concentration at 12 h [2, 3]: 6.1 ± 3.2 ng/g
- concentration at 24 h [2, 3]: 8.6 ± 6.5 ng/g
- concentration at 0.5 h [2, 4]: 111 ± 23.3 ng/g
- concentration at 1 h [2, 4]: 68.1 ± 52.7 ng/g
- concentration at 6 h [2, 4]: 15.7 ± 19.3 ng/g
- concentration at 12 h [2, 4]: 1.7 ± 1.5 ng/g
- concentration at 0.5 h [2, 5]: 90.4 ± 30 ng/g
- concentration at 1 h [2, 5]: 172 ± 89.5 ng/g
- concentration at 6 h [2, 5]: 35.2 ± 14.7 ng/g
- concentration at 12 h [2, 5]: 28.6 ± 21.7 ng/g
- concentration at 24 h [2, 5]: 14.1 ± 5.6 ng/g
- concentration at 0.5 h [2, 6]: 481 ± 398 ng/g
- concentration at 1 h [2, 6]: 99.3 ± 26.9 ng/g
- concentration at 6 h [2, 6]: 52.3 ± 43.2 ng/g
- concentration at 12 h [2, 6]: 2.7 ± 1.9 ng/g
- concentration at 24 h [2, 6]: 0.7 ± 0.6 ng/g
- concentration at 0.5 h [2, 7]: 251 ± 78.4 ng/g
- concentration at 1 h [2, 7]: 125 ± 31 ng/g
- concentration at 6 h [2, 7]: 11.3 ± 11.2 ng/g
- concentration at 24 h [2, 7]: 0.5 ng/g
- concentration at 0.5 h [2, 8]: 655 ± 89.3 ng/g
- concentration at 1 h [2, 8]: 777 ± 277 ng/g
- concentration at 6 h [2, 8]: 209 ± 166 ng/g
- concentration at 12 h [2, 8]: 45.4 ± 18.9 ng/g
- concentration at 24 h [2, 8]: 9 ± 4.7 ng/g
- concentration at 0.5 h [2, 9]: 416 ± 138 ng/g
- concentration at 1 h [2, 9]: 297 ± 241 ng/g
- concentration at 6 h [2, 9]: 44.5 ± 33.9 ng/g
- concentration at 12 h [2, 9]: 4.7 ± 1.1 ng/g
- concentration at 24 h [2, 9]: 5.3 ± 3.4 ng/g
- concentration at 0.5 h [2, 10]: 622 ± 183 ng/g
- concentration at 1 h [2, 10]: 534 ± 228 ng/g
- concentration at 6 h [2, 10]: 42.7 ± 27.3 ng/g
- concentration at 12 h [2, 10]: 13.4 ± 3.1 ng/g
- concentration at 24 h [2, 10]: 20.4 ± 12.2 ng/g
- concentration at 0.5 h [2, 11]: 231 ± 79.3 ng/g
- concentration at 1 h [2, 11]: 174 ± 91.4 ng/g
- concentration at 6 h [2, 11]: 7.2 ± 5.7 ng/g
- concentration at 12 h [2, 11]: 0.9 ± 0.1 ng/g
- concentration at 24 h [2, 11]: 1.3 ± 0.9 ng/g
- concentration at 0.5 h [2, 12]: 34.2 ± 21.2 ng/g
- concentration at 1 h [2, 12]: 51.7 ± 24.4 ng/g
- concentration at 6 h [2, 12]: 9.5 ± 8.5 ng/g
- concentration at 12 h [2, 12]: 1.5 ± 0.7 ng/g
- concentration at 24 h [2, 12]: 1.4 ± 1.1 ng/g
- concentration at 0.5 h [2, 13]: 39.8 ± 28.6 ng/g
- concentration at 1 h [2, 13]: 52 ± 25.5 ng/g
- concentration at 6 h [2, 13]: 4.5 ± 3.5 ng/g
- concentration at 12 h [2, 13]: 2 ± 1.9 ng/g
- concentration at 24 h [2, 13]: 1.4 ± 1.5 ng/g
- concentration at 0.5 h [2, 14]: 277 ± 42.4 ng/mL
- concentration at 1 h [2, 14]: 119 ± 63.5 ng/mL
- concentration at 6 h [2, 14]: 16.8 ± 26.4 ng/mL
- concentration at 12 h [2, 14]: 2.4 ± 1.7 ng/mL
- concentration at 24 h [2, 14]: 0.3 ± 0.1 ng/mL
- Peak concentration of PU-48 in brain [2]: 111.1 ± 23.3 ng/mL
- Blood brain barrier crossing ([2]; inferred from brain concentration): could cross the blood brain barrier (BBB)
- Tmax ([2]; thirteen tissues, read-out: Peak time (Tmax) of PU-48 in analyzed tissues): 30 to 60 min
- concentration at 0.5 h [2, 15]: 266 ± 120 ng/g
- concentration at 1 h [2, 15]: 161 ± 64 ng/g
- concentration at 6 h [2, 15]: 15.2 ± 12.9 ng/g
- concentration at 12 h [2, 15]: 3.8 ± 5.7 ng/g
- concentration at 24 h [2, 15]: 9.9 ± 12 ng/g
- concentration at 0.5 h [2, 16]: 887 ± 235 ng/g
- concentration at 1 h [2, 16]: 2020 ± 822 ng/g
- concentration at 6 h [2, 16]: 509 ± 160 ng/g
- concentration at 12 h [2, 16]: 104 ± 28.4 ng/g
- concentration at 24 h [2, 16]: 7 ± 3.1 ng/g
- concentration at 24 h ([2]; tissues except liver and colon, read-out: Concentrations of PU-48 in tissues except liver and colon): < 10 ng/g
